Assay results: patent publication US9067898B1, “Isothiazole derivatives as GPR120 agonists for the treatment of type II diabetes” (Janssen Pharmaceutica NV, priority 2014, dated 2015)

How the values were obtained:
[1] = target: T1, Human GPR120 short form (Homo sapiens, UniProt Q5NUL3); assay: Human GPR120 calcium flux assay (FLIPR), Procedure Calcium A; assay type: cell-based; details: HEK-293 cells expressing human GPR120 short form, 2500 cells/well; read-out: GPR120 Ca2+ Assay A EC50
T1 construct: expressed in transfected cells
T1 sequence (Q5NUL3 1-361): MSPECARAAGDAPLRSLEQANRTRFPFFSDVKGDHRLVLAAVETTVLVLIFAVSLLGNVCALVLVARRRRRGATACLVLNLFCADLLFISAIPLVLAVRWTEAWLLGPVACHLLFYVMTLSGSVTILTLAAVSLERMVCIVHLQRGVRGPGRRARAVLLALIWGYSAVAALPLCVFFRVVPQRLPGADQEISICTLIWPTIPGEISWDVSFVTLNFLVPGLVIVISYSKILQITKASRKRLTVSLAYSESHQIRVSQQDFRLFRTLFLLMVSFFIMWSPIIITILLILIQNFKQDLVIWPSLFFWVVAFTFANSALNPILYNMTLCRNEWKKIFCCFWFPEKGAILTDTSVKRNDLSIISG
Outline: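 HEK293 cells stably expressing the short isoform (NM_001195755.1), 2500/well, starved 1 h, then loaded with Fluo-4 NW plus probenecid (30 min 37 °C, 15 min RT). Compound solutions 0.012–100 μM, 0.2% DMSO final; FLIPR read 300 s after addition. EC50 from Fmax−Fmin fitted to variable-slope sigmoid (Hill <2).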

[2] = target: T2, short form of the GPR120 receptor (GPR120S) (Homo sapiens, UniProt Q5NUL3); assay: Human GPR120 DiscoveRx PathHunter Beta-Arrestin assay, Procedure β-arrestin B; assay type: cell-based; details: PathHunter CHO-K1 GPR120S β-Arrestin cell line, 5000 cells/well, read-out: hGPR120 β-arrestin B EC50
T2 construct: host or cells: PathHunter CHO-K1 GPR120S β-Arrestin Cell Line
Source text: The binding of an agonist (medium/long chain fatty acids or small molecule agonists) to the G-protein-coupled receptor GPR120 activates phospholipase C, leading to release of intracellular Ca^+2 through the generation of inositol 1,4,5-trisphosphate (InsP3 or IP3). GPR120 activation can also trigger intracellular signaling via recruitment of Beta-Arrestin. In the present method, agonist-induced activation of the human GPR120 receptor is monitored through the use of PathHunter CHO-K1 GPR120 Beta-Arrestin Cell Line engineered by DiscoveRx, as detailed below. The cell lines are designed to co-express both the ProLink/Enzyme Donor (PK)-tagged GPCR and the Enzyme […] (EA)-tagged Beta-Arrestin fusion proteins. Upon GPR120 receptor stimulation/activation, the EA-tagged Beta-Arrestin portion is translocated to the tagged receptor, where the two enzyme fragments are brought within close proximity. Under these conditions, these fragments can interact and form an active Beta-gal enzyme complex through Enzyme Fragment Complementation (EFC). This active Beta-gal complex can enzymatically hydrolyse the substrate to produce a detectable light signal; therefore, activation as a function of agonist concentration can be expressed as an EC50 value to determine relative compound activities. This in vitro assay therefore serves to assess compound agonist activity of the GPR120. Procedure β-Arrestin A: In Procedure β-arrestin A, the cell used were PathHunter CHO-K1 GPR120 β-Arrestin Cell Line, expressing the long form of human GPR120 (Genbank accession number NM 181745), with 3000 cells per well. Procedure β-Arrestin B: In Procedure 3-arrestin B the cells used were PathHunter CHO-K1 GPR120S β-Arrestin Cell Line, expressing the short form of the GPR120 receptor (Accession #NM_181745), with 5000 cells/well. Assay Procedure:
The selected CHO-K1 GPR120 β-Arrestin cells were cultured in Ham's F12 media supplemented with 10% fetal bovine serum (FBS), 1% Glutamine, lx p/s, 800 μg/mL G418 and 300 μg/mL Hygromycin B (for selection). Cell stocks were maintained and grown in a sub-confluent state using standard cell culture procedures. The day before the experiment, the cells were harvested with non-enzymatic cell dissociation buffer and re-suspended in complete growth media at the desired concentration. A Corning 384-plate was then seeded with the proper number of cells in a volume of 25 μL, per well. The seeded plates were incubated overnight at 37° C.
On the day of the experiment, the Assay Buffer containing (a) HBSS with Ca^++ and Mg^++, (b) 20 mM HEPES, and (c) 0.1% BSA stabilizer (pH 7.4) was prepared. The growth medium was gently removed from the cell plates and 20 μL of Assay Buffer added to each well. The plate was then incubated at 37° C. for 60 min. Test compounds were serially diluted in Assay Buffer to desired concentrations (more particularly to one or more of the following μM concentrations: 25, 12.5, 6.25, 3.125, 1.5625, 0.78125, 0.390625, 0.1953125, 0.09765625, 0.048828125, 0.024414063, 0.012207031). Five μL of compound dilution was then added to each well and the plate incubated at 37° C. for 90 min. The detection reagents were prepared according to the manufacture's instruction. Twelve μL of the detection reagents were added to each well and the plate incubated at room temperature for 60 min.
The plates were read on an EnVision instrument, using Protocol name: Luminescence, Plate type: 384 Costar, Measurement height: 3 mm, Measurement time: 1 s, Aperture: 384 Plate aperture. The % activity relative to the positive control was calculated using the following equation:
The % Activity values were plotted versus the concentration of test compound and fitted to a sigmoidal dose-response curve with a Hill slope=1 (fixed value) using nonlinear regression with GraphPad Prism 5.0 to calculate the EC50 values. […]

T2 sequence (P32121 whole entry partner, one chain of several): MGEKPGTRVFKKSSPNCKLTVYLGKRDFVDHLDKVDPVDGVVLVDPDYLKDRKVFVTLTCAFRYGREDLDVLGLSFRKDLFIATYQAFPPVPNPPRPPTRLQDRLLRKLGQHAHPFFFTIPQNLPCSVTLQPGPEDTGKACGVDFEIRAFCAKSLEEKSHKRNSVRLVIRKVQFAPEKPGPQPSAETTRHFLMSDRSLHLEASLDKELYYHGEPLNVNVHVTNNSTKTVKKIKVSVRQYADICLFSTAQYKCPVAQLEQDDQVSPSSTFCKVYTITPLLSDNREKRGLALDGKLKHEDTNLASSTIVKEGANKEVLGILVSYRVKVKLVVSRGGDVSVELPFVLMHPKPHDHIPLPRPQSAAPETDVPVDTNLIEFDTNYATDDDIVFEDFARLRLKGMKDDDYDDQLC

EC50 [1]	EC50 [2]	Molecule
215 nM	435 nM	CC(Cc1ccc(OCc2c(-c3ccc(Cl)c(F)c3)nsc2C(F)(F)F)cc1)C(=O)O (centres unmarked) [Cpd 165, 3-(4-((3-(4-chloro-3-fluorophenyl)-5-(trifluoromethyl)isothiazol-4-yl)methoxy)phenyl)-2-methylpropanoic acid]
72 nM	116 nM	Cc1ccc(-c2snc(C(F)(F)F)c2COc2c(F)cc(CCC(=O)O)cc2F)c(F)c1 [Cpd 95, 3-(3,5-difluoro-4-[[5-(2-fluoro-4-methylphenyl)-3-(trifluoromethyl)-1,2-thiazol-4-yl]methoxy]phenyl)propanoic acid]
648 nM	2140 nM	CCc1cc(CCC(=O)O)c(C(F)(F)F)cc1OCc1c(Cl)nsc1-c1ccccc1C [Cpd 215, 3-(4-((3-chloro-5-(o-tolyl)isothiazol-4-yl)methoxy)-5-ethyl-2-(trifluoromethyl)phenyl)propanoic acid]
423 nM	622 nM	Cc1c(CCC(=O)O)ccc(OCc2c(C3CCC(F)(F)C3)nsc2C(F)(F)F)c1C (centres unmarked) [Cpd 199, 3-(4-[[3-(3,3-difluorocyclopentyl)-5-(trifluoromethyl)-1,2-thiazol-4-yl]methoxy]-2,3-dimethylphenyl)propanoic acid]
274 nM	819 nM	3-(4-[[5-(4-chlorophenyl)-3-(trifluoromethyl)-1,2-thiazol-4-yl]methoxy]-2-(trifluoromethoxy)phenyl) propanoic acid [Cpd 159]
222 nM	352 nM	COc1ccc(-c2nsc(C(F)(F)F)c2COc2ccc(CCC(=O)O)c(C)c2C)cn1 [Cpd 167, 3-(4-[[3-(6-methoxypyridin-3-yl)-5-(trifluoromethyl)-1,2-thiazol-4-yl]methoxy]-2,3-dimethylphenyl)propanoic acid]
478 nM	1480 nM	Cc1ccccc1-c1snc(C(F)(F)F)c1COc1ccc(CCC(=O)O)c(C(F)(F)F)c1 [Cpd 203, 3-(4-[[5-(2-methylphenyl)-3-(trifluoromethyl)-1,2-thiazol-4-yl]methoxy]-2-(trifluoromethyl)phenyl) propanoic acid]
306 nM	153 nM	CCc1ccc(-c2nsc(C(F)(F)F)c2COc2c(F)cc(CC(C)C(=O)O)cc2F)c(F)c1 (centres unmarked) [Cpd 188, 3-(4-((3-(4-ethyl-2-fluorophenyl)-5-(trifluoromethyl)isothiazol-4-yl)methoxy)-3,5-difluorophenyl)-2-methylpropanoic acid]
124 nM	59 nM	CCc1ccc(-c2nsc(C(F)(F)F)c2COc2c(F)cc(CCC(=O)O)cc2F)c(F)c1 [Cpd 128, 3-(4-((3-(4-ethyl-2-fluorophenyl)-5-(trifluoromethyl)isothiazol-4-yl)methoxy)-3,5-difluorophenyl)propanoic acid]
69 nM	31 nM	Cc1ccc(-c2nsc(C(F)(F)F)c2COc2c(F)cc(CCC(=O)O)cc2F)cc1F [Cpd 91, 3-(3,5-difluoro-4-[[3-(3-fluoro-4-methylphenyl)-5-(trifluoromethyl)-1,2-thiazol-4-yl]methoxy]phenyl)propanoic acid]
578 nM	554 nM	O=C(O)CCc1ccc(OCc2c(C(F)(F)F)nsc2-c2ccc(Cl)cc2)cc1Cl [Cpd 208, 3-(2-chloro-4-[[5-(4-chlorophenyl)-3-(trifluoromethyl)-1,2-thiazol-4-yl]methoxy]phenyl)propanoic acid]
246 nM	85 nM	O=C(O)CCc1cc(F)c(OCc2c(-c3ccc(F)cc3F)nsc2C(F)(F)F)c(F)c1 [Cpd 174, 3-(4-((3-(2,4-difluorophenyl)-5-(trifluoromethyl)isothiazol-4-yl)methoxy)-3,5-difluorophenyl)propanoic acid]
165 nM	390 nM	O=C(O)CCc1cc(F)c(OCc2c(C3CC(F)(F)C3)nsc2C(F)(F)F)c(F)c1 [Cpd 147, 3-(4-[[3-(3,3-difluorocyclobutyl)-5-(trifluoromethyl)-1,2-thiazol-4-yl]methoxy]-3,5-difluorophenyl) propanoic acid]
